Laboratory results as given in US12403115B2, “Asymmetric synthesis and uses of compounds in disease treatments” (Zhejiang Jiachi Development Pharmaceuticals LTD., priority 2017, dated 2025).
Entries after “also recorded” stand apart in the source; their conditions may differ.

How the values were obtained:
OVX female mice [1] = assay: OVX mice: osteoporosis by micro-CT (BMD, BV/TV); type: in vivo; details: for prevention of osteoporosis (micro-CT): OVX mice, given by food, three months
Experimental: (§1) In this Example, studies have been shown the estrogenic effects of α- and β-anordrins on estrogen-modulated metabolic signaling and tissue atrophy. The ovaries of 7 week old mice were surgically excised. One week post surgery, the mice were given isoflavone, α-anordrin or β-anordrin by food. Body mass, blood glucose and food intake were measured monthly. After three months. Mice were sacrificed. The leg and spine bone, liver, uterus and vagina were harvested.
(§2) The ovaries of 6 week old mice were excised by surgery. 3 days post surgery drugs were administered by gastric tract injection every day or mixed with food.
(§3) Thighbone was fixed in 1×DPBS containing 3% formaldehyde for two weeks. The fixation solution was exchanged after one week. The density of thighbone was measured by Siemens Inveon Micro-CT. Inveon Research Workplace (IRW) was used to analyze the HU2000 value at the following measurement conditions: 80 KVP, […], 1500 ms exposure time; CCD Readout installation: 2048axial, 2048 binning; FOV Transaxial: 19.03 mm, axial: 19.03 mm, pixels size: 9.29 μm.

OVX female mice [2] = assay: OVX mice: vulvovagina atrophy (vagina wet mass, H&E sections, thickness of vulvovagina wall); type: in vivo; details: given by food, three months
Experimental: as §1, §2
(§4) Vagina was cut at the middle site. Both uterine site and vulvovaginal site were embedded in paraffin at the same direction for H&E section preparation. The thickness of vulvovaginal wall was measured from 40× magnification images of Paraffin-embedded H&E mice vagina sections.

mouse vagina = assay: Anastrozole-induced vagina atrophy in mice (vagina wet mass, H&E sections); type: in vivo; details: food containing drug plus equal amount of anastrozole, 6 months
From the text: (§5) Aromatase inhibitors were administrated to ER positive breast in post-menopausal women. […] It was administrated to ER positive breast cancer in post menopausal women. […] Vulvovagina atrophy usually results in infection of vagina and urinary tract. As an example, we tested whether α-anordrin or β-anordrin eliminates anastrozole-induced uterus and vulvovagina atrophy, and osteoporosis. […] Mice were then sacrificed to harvest vagina, leg and spine bone. The tissues were fixed in paraformaldehyde.
as §4

OVX female mice [3] = assay: OVX mice: TG accumulation in liver (H&E sections, liver TG); type: in vivo; details: given by food
Experimental: as §1, §2
The error was corrected by using internal standard controls.

OVX female mice [4] = assay: OVX mice: uterus atrophy (uterine wet mass, H&E sections); type: in vivo; details: three months
Experimental: as §1, §2

OVX female mice [5] = assay: OVX mice: blood glucose, blood TG, body mass and food uptake; type: in vivo
Experimental: as §1
glucose concentration in medium or total blood from mouse tail was measured using glucose assay kits following manufacturer's instructions (Yicheng, Beijing).
as §2

mice bone = assay: Anastrozole-induced osteoporosis in mice by micro-CT (BMD, BV/TV, Tb.N); type: in vivo; details: for inhibition of anastrozole-induced osteoporosis (micro-CT): food containing drug plus equal amount of anastrozole, 6 months
From the text: as §5, §3

mice uterus EECs = system: mice uterus EECs
Experimental: (§6) Tamoxifen was the first FDA-approved drug for breast cancer patients with positively expressed ER. […] We further tested whether α-anordrin or β-anordrin eliminates tamoxifen-induced EEC mitosis. […] Mice were then sacrificed to harvest uterus and liver. Uterine and liver tissues were fixed.
(§7) The tissue of mice was excised by surgery and fixed using 4% paraformaldehyde in 1×DPBS (Beijing Solar Bioscience & Technology co., Ltd). Paraffin section preparation and HE staining was performed by GLP laboratory of BK animal model, Inc.
EEC height was measured from 20-200× magnification EEC images of Paraffin-embedded H&E mice uterus sections.

mouse liver = system: mouse liver
Experimental: as §6, §7
30-50 mg of mouse liver was excised by surgery and homogenized in 1 ml Cholroform:Methanol (2:1) mixture and extracted using 0.5 ml ddH2O. The organic phase was transferred to new tubes and air dried. The amount of TG was measured using kits following manufacturer's instructions. The error was corrected by using internal standard controls.

[6] = system: endometrial epithelial cell (EEC); details: earlier finding of the applicants, no method given here (cf. reference 21); cited from earlier work
[7] = combination with equal amount of anastrozole, micro-CT
[8] = mice, food containing drug plus tamoxifen, 6 months

C#C[C@@]1(OC(=O)CC)CC2CCC3C(CC[C@@]4(C)C3CC[C@]4(C#C)OC(=O)CC)[C@@]2(C)C1 (single isomer, unassigned) [α-anordrin, (2α,17α)-diethynyl-(2β, 17β)-diol-dipropionate-A-nor-5α-androstane]
prevention of the decrease of bone volume (BV)/bone trabecula volume (TV) ratio (BV/TV) (OVX female mice [1]; OVX female mice, micro-CT): more activity to prevent the ratio decreasing of bone volume (BV)/bone trabecula volume (TV) (BV/TV) compared with β-anordrin
prevention of the loss of bone mean density (BMD) (OVX female mice [1]; OVX female mice, micro-CT): more activity to prevent the loss of bone mean density (BMD) compared with β-anordrin
prevention of osteoporosis (micro-CT) (OVX female mice [1]): prevented osteoporosis; also recorded: more actively to prevent the osteoporosis compared with β-anordrin
prevention of vulvovagina atrophy (uterus and vagina wet mass and H&E staining) (OVX female mice [2]): prevented vulvovagina atrophy; also recorded: dosage dependent activity to prevent the atrophy of vulvovagina
inhibition of anastrozole-induced vagina atrophy (vagina wet mass, H&E sections) (mouse vagina): inhibits anastrozole-induced vagina atrophy
amount of liver TG (liver H&E section and statistical analysis) (OVX female mice [3]): decreased the amount of liver TG; also recorded: dosage dependent activity to prevent TG accumulation in liver
prevention of uterus atrophy (OVX female mice [4]; OVX female mice, lower dosage, compared with sham group): did not prevent the uterus atrophy
atrophy symptom in uterus (OVX female mice [4]; OVX mice, given by food): less atrophy symptom in uterus compared with those mice treated by β-anordrin and blank groups
body mass (OVX female mice [5]; after administration of drugs by food): less and dosage dependent activity to decrease
blood glucose (OVX female mice [5]; given by food): less and dosage dependent activity to decrease
blood triglyceride (TG) (OVX female mice [5]; given by food): less and dosage dependent activity to decrease
inhibition of anastrozole-induced decrease of BV/TV (mice bone; [7]): inhibits anastrozole-induced the ratio decreasing of bone volume (BV)/bone trabecular volume (TV) (BV/TV)
inhibition of anastrozole-induced decrease of bone trabecula number (Tb.N) (mice bone; [7]): inhibits anastrozole-induced the decreasing of bone trabecula number (Tb.N)
inhibition of anastrozole-induced loss of bone mean density (BMD) (mice bone; [7]): inhibits anastrozole-induced the loss of bone mean density (BMD)
inhibition of anastrozole-induced osteoporosis (micro-CT) (mice bone): inhibited anastrozole-induced osteoporosis; also recorded: inhibits anastrozole-induced osteoporosis in bone

CC/C(=C(\c1ccccc1)c1ccc(OCCN(C)C)cc1)c1ccccc1 [TAM, tamoxifen, reference compound]
appearance of EECs in H&E staining sections (mice uterus EECs; mouse, in vivo): rough and mitotic
fatty deposition in liver cells (H&E staining sections) (mouse liver; mouse, in vivo): high fatty deposition in liver cells

C#C[C@@]1(OC(=O)CC)C[C@@H]2CC[C@@H]3[C@H](CC[C@@]4(C)[C@H]3CC[C@]4(C#C)OC(=O)CC)[C@@]2(C)C1 [anordrin]
elimination of tamoxifen-induced endometrial epithelial cell (EEC) mitosis [6]: can eliminate tamoxifen-induced endometrial epithelial cell (EEC) mitosis

C#C[C@]1(OC(=O)CC)C[C@@H]2CC[C@@H]3[C@H](CC[C@@]4(C)[C@H]3CC[C@]4(C#C)OC(=O)CC)[C@@]2(C)C1 [β-anordrin, (2β,17α)-diethynyl-(2α,17β)-diol-dipropionate-A-nor-5α-androstane, reference compound]
prevention of osteoporosis (micro-CT) (OVX female mice [1]): not 3-anordrin prevented osteoporosis
prevention of vulvovagina atrophy (uterus and vagina wet mass and H&E staining) (OVX female mice [2]): not β-anordrin prevented vulvovagina atrophy
inhibition of anastrozole-induced vagina atrophy (vagina wet mass, H&E sections) (mouse vagina): not β-anordrin inhibited anastrozole-induced vagina atrophy
amount of liver TG (liver H&E section and statistical analysis) (OVX female mice [3]): not β-anordrin decreased the amount of liver TG
inhibition of tamoxifen-induced EEC mitosis (mice uterus EECs; [8]): not β-anordrin inhibited tamoxifen-induced EEC mitosis
inhibition of tamoxifen-induced NASH (mouse liver; [8]): not β-anordrin inhibited
inhibition of anastrozole-induced osteoporosis (micro-CT) (mice bone): not β-anordrin inhibited anastrozole-induced osteoporosis
